From paper PMC12316891, “A bottom-up approach to find lead compounds in expansive chemical spaces” (Communications Chemistry, 2025)
Read-outs that look alike come from different tables or passages of the source.

How the values were obtained:
[1] = target: T1, His6-BRD4 (BD1) (Homo sapiens, UniProt O60885); assay: Surface plasmon resonance (SPR) single-dose screening; type: binding; design: key to SPR RESULT: Positive: compounds were considered as SPR hits also when their average signal was further than two standard deviations apart from the average signal of the blank samples (1% DMSO); details: for RUs at [10 µM]: SPR, compound 10 µM, 1% DMSO, n = 2, decimal comma; for SPR RESULT: single dose 10 µM, n = 2
T1 construct: A pET28 plasmid containing residues 44–168 of BRD4 (BD1), a 6xHis tag, a TEV protease cleavage site; made in house; host or cells: E. coli Rosetta (D3)

[2] = target: T2, BRD4 (BD1) (Homo sapiens, UniProt O60885); assay: Differential scanning fluorimetry (DSF) single-dose thermal shift screening; type: binding; details: for ΔTm at 10 µM: read-out: ΔTm ºC at [10 µM]
T2 construct: A pET28 plasmid containing residues 44–168 of BRD4 (BD1), a 6xHis tag, a TEV protease cleavage site; 6xHis (N, cleaved yes); made in house; host or cells: E. coli Rosetta (D3)

[3] = target: T2, BRD4 (BD1); assay: Competitive HTRF TR-FRET binding assay (displacement of acetylated histone H4 peptide); details: for TR-FRET IC50 (nM) / IC50: 16-point titration 0.1 nM to 10 µM, n = 2, Negative = curve could not be fitted to a sigmoidal curve; for IC50: read-out: TR-FRET IC50
Procedure: To further quantitatively characterize the DSF/SPR hits compounds obtained in the single-dose screenings, we selected HTRF TR-FRET. Specifically, we employed a competitive HTRF TR-FRET experiment to measure the compound’s capacity to displace an acetylated peptide from the binding site of BRD4 (BD1). For each molecule, a 16-point concentration curve was titrated against the peptide-BRD (BD1) complex and incubated for 1.5 h. A compound was considered a positive binder if we could fit its titration curve to a sigmoidal curve to determine its IC50. […] Compound screening was carried out in 384-well, white, round-bottom, small-volume plates (CORNING) in a final volume of 20 µL of 50 mM HEPES (pH 7.4), 50 mM NaCl, 400 mM KF, 0.5 mM CHAPS, and 0.05% BSA. […] Then, the labeled anti-His6-XL665 antibody (CisBio) (10 nM) was added to the mixture and incubated for 15 min, before the Eu3+ cryptate-conjugated streptavidin (2 nM) (CisBio) was added and incubated for 15 min. All incubations were performed at room temperature. […] Titration of (+)−JQ1 was used as a positive control for each experiment.

[4] = DSF, compound 10 µM, BRD4 (BD1) 2 µM, n = 3, decimal comma

SMILES	RUs at [10 µM] [1]	SPR RESULT [1]	ΔTm at 10 µM [2, 4] [°C]	TR-FRET IC50 (nM) [3]	IC50 [3] [µM]	ΔTm ºC at [10 µM] [2, 4]	IC50 by HTRF TR-FRET, range in words ([3]; potency range or dose-response behaviour)	ΔTm at 10 µM [2] [°C]
CC(=O)c1ccc(N2CCN(C(=O)Nc3nnc(C)s3)CC2)c(F)c1 [Compound 69, CC(=O)C=1C=CC(N2CCN(CC2)C(=O)NC3=NN=C(C)S3)=C(F)C1]	23,49 ± 1,0 RUs	Positive	0.61	Negative	–	–	–	–
COC(=O)C1(NCC(=O)Nc2nnc(C)s2)CC(C)(C)OC(C)(C)C1 [Compound 92, COC(=O)C1(CC(C)(C)OC(C)(C)C1)NCC(=O)NC2=NN=C(C)S2]	8,96 ± 1,15 RUs	Negative	1.04	–	0.622	–	–	–
Cc1nnc(NC(=O)CNC(c2ccc(Cl)cc2)c2ccccc2C(C)C)s1 (stereo not drawn) [Compound 80, CC(C)C=1C=CC=CC1C(NCC(=O)NC2=NN=C(C)S2)C=3C=CC(Cl)=CC3]	29,64 ± 5,36 RUs	Positive	-0.49	–	0.0236	–	–	–
CCCc1c(C(=O)N2CCOC(Cn3cc(-c4ccsc4)nn3)C2)[nH]c(C)c1C(C)=O (stereo not drawn) [Compound 22, CCCC1=C(NC(C)=C1C(=O)C)C(=O)N2CCOC(CN3C=C(N=N3)C=4C=CSC4)C2]	20,06 ± 0,43 RUs	Positive	2.02	–	0.046	–	–	–
CCCc1c(C(=O)N2CCOC(CN(C)C(=O)c3cccn3C)C2)[nH]c(C)c1C(C)=O (stereo not drawn) [Compound 26, CCCC1=C(NC(C)=C1C(=O)C)C(=O)N2CCOC(CN(C)C(=O)C3=CC=CN3C)C2]	22,04 ± 8,53 RUs	Negative	2.61	–	1.02	–	–	–
COc1cc2c(cc1-c1c(C)noc1C)ncc1[nH]c(=O)n([C@H](C)c3ccccn3)c12 [Compound 2, CC1=C(C(=NO1)C)C2=C(C=C3C(=C2)N=CC4=C3N(C(=O)N4)C(C)C5=CC=CC=N5)OC, reference compound]	95,35 ± 25,76 RUs	–	–	–	–	–	–	–
COc1ccc(-n2c(C)nnc2SCC(=O)NC2CCN(C(=O)c3cc(Cl)sc3Cl)CC2C)cc1 (stereo not drawn) [Compound 52, COC=1C=CC(=CC1)N2C(C)=NN=C2SCC(=O)NC3CCN(CC3C)C(=O)C=4C=C(Cl)SC4Cl]	31,14 ± 2,8 RUs	Positive	-0.23	–	0.266	–	–	–
COc1ccc(-n2c(C)nnc2SCC(=O)Nc2cn(C)nc2C(N)=O)cc1 [Compound 17, COC=1C=CC(=CC1)N2C(C)=NN=C2SCC(=O)NC3=CN(C)N=C3C(=O)N]	9,07 ± 0,52 RUs	Positive	1.17	–	0.192	–	–	–
Cn1ccnc1C1CCN(C(=O)c2nn(C)c(=O)c3ccccc23)C1 (stereo not drawn) [Compound 13, CN1C=CN=C1C2CCN(C2)C(=O)C3=NN(C)C(=O)C=4C=CC=CC34]	5,53 ± 2,74 RUs	Negative	0.45	–	0.00146	–	–	–
CNC(=O)C1(C(=O)N[C@@H]2CCCC[C@H]2NC(=O)c2cnsn2)CCC1 [Compound 65, CNC(=O)C1(CCC1)C(=O)N[C@@H]2CCCC[C@H]2NC(=O)C=3C=NSN3]	7,82 ± 0,92 RUs	Negative	0.32	–	0.0287	–	–	–
CN(C)S(=O)(=O)c1ccc(-n2nc(-c3cccnc3)nc2-c2cn(C)c(=O)c3ccccc23)cc1 [Compound 51, CN(C)S(=O)(=O)C=1C=CC(=CC1)N2N=C(N=C2C3=CN(C)C(=O)C=4C=CC=CC34)C=5C=CC=NC5]	29,75 ± 5,31 RUs	Positive	3.61	–	0.0393	–	–	–
Cc1nc(=O)c(CCC(=O)NC2CC(O)(Cn3cc(-c4cnn(C)c4C)nn3)C2)c[nH]1 (stereo not drawn) [Compound 81, CC1=C(C=NN1C)C2=CN(CC3(O)CC(C3)NC(=O)CCC4=CNC(C)=NC4=O)N=N2]	11,5 ± 1,85 RUs	Positive	-0.15	–	0.0264	–	–	–
Cc1nc(=O)c(CCC(=O)N2CC3(CCCC3)c3ccccc32)c[nH]1 [Compound 85, CC1=NC(=O)C(CCC(=O)N2CC3(CCCC3)C=4C=CC=CC24)=CN1]	24,26 ± 6,71 RUs	Positive	1.18	–	0.018	–	–	–
CCCc1c(C(=O)N2CCOC(CNC(=O)c3cc(C)ccn3)C2)[nH]c(C)c1C(C)=O (stereo not drawn) [Compound 40, CCCC1=C(NC(C)=C1C(=O)C)C(=O)N2CCOC(CNC(=O)C=3C=C(C)C=CN3)C2]	9,46 ± 0,53 RUs	Positive	1.13	–	0.372	–	–	–
Cc1nnc(NC(=O)CCC(=O)N2Cc3ccccc3OC3(CCOC3)C2)s1 (stereo not drawn) [Compound 76, CC1=NN=C(NC(=O)CCC(=O)N2CC=3C=CC=CC3OC4(CCOC4)C2)S1]	25 ± 11,77 RUs	Negative	2.11	–	0.405	–	–	–
COC1(CNC(=O)C2=C(Cl)CCCC2)CCN(C(=O)c2sc3nnc(C)c(C)c3c2N)CC1 [Compound 57, COC1(CNC(=O)C2=C(Cl)CCCC2)CCN(CC1)C(=O)C=3SC=4N=NC(C)=C(C)C4C3N]	26,22 ± 6,56 RUs	Positive	0.48	Negative	–	–	–	–
O=C(Nc1cccc(C(=O)N2CCC(Cn3cc(C4(O)CCOCC4)nn3)CC2)c1)c1ccco1 [Compound 84, OC1(CCOCC1)C2=CN(CC3CCN(CC3)C(=O)C=4C=CC=C(NC(=O)C5=CC=CO5)C4)N=N2]	17,5 ± 1,9 RUs	Positive	1.16	–	0.0181	–	–	–
Cn1cc(C(=O)Nc2ccc(OCc3cnccn3)cc2)c2ccccc2c1=O [Compound 42, CN1C=C(C(=O)NC=2C=CC(OCC=3C=NC=CN3)=CC2)C=4C=CC=CC4C1=O]	34,2 ± 10,95 RUs	Positive	1.04	–	0.169	–	–	–
CN(C)C(=O)Sc1cc(NC(=O)c2cn(C)c(=O)c3ccccc23)ccc1Cl [Compound 53, CN(C)C(=O)SC=1C=C(NC(=O)C2=CN(C)C(=O)C=3C=CC=CC23)C=CC1Cl]	28,62 ± 5,34 RUs	Positive	1.09	–	1.04	–	–	–
Cc1nnnn1-c1cc(F)cc(C(=O)N2CCN(C(=O)C(=O)NCC3CC3)C(C(C)C)C2)c1 (stereo not drawn) [Compound 41, CC(C)C1CN(CCN1C(=O)C(=O)NCC2CC2)C(=O)C=3C=C(F)C=C(C3)N4N=NN=C4C]	1,13 ± 7,64 RUs	Negative	1.7	Negative	–	–	–	–
COc1ccc(-n2c(C)nnc2SCC(=O)Nc2ccc(C)c(Cl)c2Cl)cc1 [Compound 12, COC=1C=CC(=CC1)N2C(C)=NN=C2SCC(=O)NC=3C=CC(C)=C(Cl)C3Cl]	78,35 ± 18,49 RUs	Positive	–	Negative	–	-0,57 ± 0,38 ºC	–	–
COc1ccc(-n2c(C)nnc2SCC(=O)N(c2ccccc2)C2CC2)cc1 [Compound 48, COC=1C=CC(=CC1)N2C(C)=NN=C2SCC(=O)N(C3CC3)C=4C=CC=CC4]	4,63 ± 0,03 RUs	Negative	2.35	–	0.0532	–	–	–
COc1ccc(C2(NCC(=O)Nc3cc(-n4nnnc4C)ccc3F)CCOCC2)cc1 [Compound 18, COC=1C=CC(=CC1)C2(CCOCC2)NCC(=O)NC=3C=C(C=CC3F)N4N=NN=C4C]	2,91 ± 1,98 RUs	Negative	-0.7	–	1.14	–	–	–
COc1ccc(-n2c(C)nnc2SCC(=O)NCc2ccc(F)c(C)c2)cc1 [Compound 19, COC=1C=CC(=CC1)N2C(C)=NN=C2SCC(=O)NCC=3C=CC(F)=C(C)C3]	33,98 ± 20,29 RUs	Negative	1.36	–	0.543	–	–	–
Cc1nonc1CC(=O)N1CC(CC(C)NC(=O)c2nsnc2O)C1 (stereo not drawn) [Compound 90, CC(CC1CN(C1)C(=O)CC2=NON=C2C)NC(=O)C3=NSN=C3O]	11,06 ± 3,73 RUs	Negative	0.43	–	0.213	–	–	–
Cc1cc(C)n2c(CNc3ccc(C)c(NC(=O)CN4CCCCC4)c3)cnc2n1 [Compound 67, CC=1C=C(C)N2C(CNC=3C=CC(C)=C(NC(=O)CN4CCCCC4)C3)=CN=C2N1]	28,42 ± 2,09 RUs	Positive	0.81	–	0.00372	–	low nM	–
COc1ccc(-n2c(C)nnc2SCC(=O)N2CC3(CCN(C)CC3)C2)cc1 [Compound 45, COC=1C=CC(=CC1)N2C(C)=NN=C2SCC(=O)N3CC4(C3)CCN(C)CC4]	9,8 ± 3,73 RUs	Negative	2.18	Negative	–	–	–	–
Cc1sc2c(c1C)C(c1ccc(Cl)cc1)=NC(CC(=O)OC(C)(C)C)c1nnc(C)n1-2 (stereo not drawn) [Compound 3, CC1=C(SC2=C1C(=NC(C3=NN=C(N32)C)CC(=O)OC(C)(C)C)C4=CC=C(C=C4)Cl)C, reference compound]	99,15 ± 6,82 RUs	–	–	–	–	–	–	9.28
Cc1cc(C)n2nc(NC(=O)N3CCC(F)(F)C4(CCOC4)C3)nc2n1 (stereo not drawn) [Compound 68, CC=1C=C(C)N2N=C(NC(=O)N3CCC(F)(F)C4(CCOC4)C3)N=C2N1]	9,66 ± 4,71 RUs	Negative	1.11	–	–	–	–	–
